Legend:
[1] = system: hedgehog-responsive Gli-Luc reporter-construct; assay: Gli-Luc hedgehog pathway reporter assay in [10T1/2(s12)] cells; assay type: cell-based, murine; details: Table 1
Summary of the method: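 10T1/2(s12) cells carrying a Gli-Luc reporter, switched to 0.5% FBS medium, then exposed to compound for 24 hr; luciferase read by luminescence. Screen A: 1-2 μM with Hh protein at 0.01 μg/ml (about EC30); Screen B: 5 μM without Hh. Activity expressed as percent of full Hh-induced signal.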

[2] = system: cerebellar neuron precursors; assay: Cerebellar neuron precursor proliferation (3H-thymidine incorporation); assay type: cell-based, rat; details: for induction of 3H thymidine incorporation: absence of Shh
Procedure: In order to test the efficacy of Hedgehog signaling agonists, the ability of the agonists to stimulate the proliferation of cerebellar neuron precursors was determined. Cerebellar granule neuron precursors are known to respond to Hh protein by proliferating. To test the agonists, cerebellar neurons were dissected out of postnatal (one week) rat brains, and placed into primary cell culture. Treatment agents were added once, on the first day of culture (0 DIV). Cells were left in culture until 2 DIV, when 3H-thymidine was added for 5 hours; the amount of incorporation by the cells of this 3H-thymidine provides a measure of the level of proliferation of the cells. Cells were then lysed, and the incorporation of 3H-thymidine was determined. The positive control was Hh protein, at 1.0 μg/ml final concentration. Hh protein alone caused approximately a 20-fold increase in 3H-thymidine incorporation, consistent with the known ability of Shh to stimulate proliferation of these cells. Non-Hh-protein-stimulated cells, including cells treated with control vehicle (DMSO), had very low levels of proliferation. […] At 5.0 μM, the p-cyanophenyl compound B caused 10.2-fold induction of 3H-thymidine incorporation. […] At 1.0, 0.3, or 0.1 μM, D caused 16-, 17-, or 13-fold induction, respectively, of 3H thymidine incorporation into the cells.

ptc-lacZ skin punches = assay: Skin explants from ptc-lacZ pups (X-Gal stain); assay type: cell-based, mouse; details: agonist alone, cultured 6 days
Procedure: Skin from ptc-lacZ E17.5 pups was excised with a 2 mm skin punch. Those skin punches were then cultured for 6 days in control media, or media including either agonist B or D or Hh protein, or media including both an agonist and Hh protein. The explants were then stained with X-Gal stain.

[3] = system: diabetic neuropathy (nerve conduction, vasa nervorum, NGF); assay: Streptozotocin (STZ) diabetic rat model of diabetic neuropathy; assay type: in vivo
Procedure: Diabetes was induced in male Wistar rats (Charles River, UK or Harlan, San Diego, USA) with an intraperitoneal injection (55 mg/kg) of streptozotocin (STZ; Sigma) given after an overnight fast. The drug was freshly dissolved in sterile saline immediately before injection. Three days later, tail vein blood glucose was measured by a strip-operated reflectance photometer and any STZ-treated rats with blood glucose <15 mmol/l were removed from the study. Rats were group-housed with free access to food and water in a 12 h light/dark cycle. At the end of each study, blood samples were collected from all rats, plasma extracted and plasma glucose levels measured by spectophotometric assay using a commercial kit (Sigma, St. Louis, Mo.). […] Motor nerve conduction velocity (MNCV) was measured from latencies of the compound M waves of the electromyogram in the hindlimb, and sensory nerve conduction velocity (SNCV) was measured from H reflex latencies in the same system. […] Stimulation of the nerve was performed at the sciatic notch and Achilles tendon and evoked electromyograms were recorded from the interosseus muscles of the foot. […] NGF was measured in extracts from segments of sciatic nerve by ELISA as described by P. Fernyhough et al. Human recombinant nerve growth factor replaces deficient neurotrophic support in the diabetic rat. […]

## CNC1CCC(N(Cc2ccc(OC)c(-c3ccc(C#N)cc3)c2)C(=O)c2sc3ccccc3c2Cl)CC1 (centres unmarked) [D]
[1]
  EC50: < 100 nM
[2]; 0.1 μM
  induction of 3H thymidine incorporation: 13 fold
[2]; 0.3 μM
  induction of 3H thymidine incorporation: 17 fold
[2]; 1.0 μM
  induction of 3H thymidine incorporation: 16 fold
[2]; absence of Hh protein treatment
  stimulation of 3H-thymidine incorporation: strongly stimulated 3H-thymidine incorporation
ptc-lacZ skin punches
  X-Gal staining of skin explants: Analogous results
[3]; laser Doppler perfusion imaging and BS-1 lectin fluorescent imaging
  blood flow to the damaged nerves (sciatic vasa nervorum): improved
[3]; rat STZ model
  levels of nerve growth factor (NGF) in the sciatic nerve: increased levels of nerve growth factor (NGF)

— patent US8129425B2, “Small organic molecule regulators of cell proliferation” (Curis, Inc., priority 2000, dated 2012)
